How the values were obtained:
[1] = biological target: kappa opioid receptor (Homo sapiens, UniProt P41145); assay: Kappa-opioid receptor radioligand displacement ([3H]U69593); assay type: binding
[2] = biological target: human recombinant μ-opioid receptor (Homo sapiens, UniProt P35372); assay: μ-opioid receptor radioligand displacement ([3H]DAMGO); assay type: binding
[3] = Solubility remark in acute toxicity dosing; assay type: physicochemical; details: solvent 0.1% Tween-80 solution in water; 2000 mg/kg dose given in 2 administrations
Description: Compound I was administered to rats and mice intragastrically at a dose of 5000 mg/kg, intraperitoneally—at a dose of 2000 mg/kg. Control groups (female and male objects) were received a solvent (0.1% Tween-80 solution in water).

[4] = test system: male balb/c mice; assay: Open field test, functional state of the central nervous system of mice; assay type: in vivo; details: for The number of acts of defecation within 15 minutes: control 0.2 ± 0.1; for The number of washes within 15 minutes (grooming): control 8.0 ± 1.5; for Number of standing up on hind legs in 15 minutes (vertical activity): control 67.1 ± 3.5; for Number of squares crossed within 15 minutes (horizontal activity): control 443.3 ± 15.6; for General physical activity for 15 minutes: control 518.4 ± 15.3
Description: For the final confirmation of the safety of Compound I at the oral administration, the study of the effect of Compound I on the functional state of the central nervous system of mice in the open field test was carried out. “Open field” test consists in the evaluation of motor and research activities, orientation reaction and emotional reactivity in the registration of spontaneous behaviour of animals. The study was carried out according to the standard technique (Buresh Y, Bureshova O., Joseph P. Houston. Methods and main experiments to study the brain and behavior (Moscow, 1991, pp. 119-122).
The study was carried out on male balb/c mice, the individual weight of which deviates from the mean value within the sex of no more than ±10%.
Compound I was administered once, intragastrically. The evaluation of the effect on the central nervous system was carried out 2 hours after the administration of Compound I in the study of the approximate research behaviour of mice in the “open field”. The experimental “open field” facility was a chamber of 100×100×60 cm in size, with a square floor and white walls. The floor of the chamber is divided into 16 squares, in each square there is the round orifice having 6 cm in diameter. The chamber is illuminated by the incandescent electric lamp having a power of 100 watts, located at a height of 1 m from the floor of the chamber. The animal was placed in one of the corners of the chamber and for 15 minutes the number of horizontal squares crossed by it (horizontal activity), getting up on its hind legs (vertical activity), washing (grooming), and defecation by the number of fecal balls were recorded. Then the total motor activity was calculated, the activity was calculated as the sum of the crossed horizontal squares, standing on the hind legs and washing.
The obtained data were checked using the Grubb's test for the presence of the largest or smallest abnormal observation (ejection) in the sample. Values determined “to be eliminated” in this test were not used for further assay. For all data, descriptive statistics was used: a mean value (M) and standard error of the mean value (m) were counted up. The normality of distribution of the values obtained in the course of the experiment was checked with the aid of the Kolmogorov-Smirnov test. In the case of normal distribution, Student's t-test (t-test) was used to evaluate the inter-group distinctions. In the case of the distribution that is other than the normal one the Kruskalll-Wallis test with Dann's post hoc test was used for the comparison of several groups. Distinctions were determined at 5% at a level of confidence.

[5] = test system: guinea pigs of Agouti line; assay: Capsaicin cough model in guinea pigs, inhalation administration; assay type: in vivo
[6] = biological target: T1, TRPM8 ion channel (Homo sapiens, UniProt Q7Z2W7); assay: Effect on activity of TRPM8 ion channel (Fluo-4 AM calcium); assay type: cell-based; details: TRPM8 expressing HEK293 cells; Icilin 100 nM; intracellular calcium; read-out: IC50, blocker of TRPM8 ion channel
T1 construct: expressed in transfected cells; host or cells: HEK293 cells
Description: Compound I was dissolved in DMSO to a concentration of 100 mM; then the stock solution was diluted with DMSO to prepare a test solution with the concentration of substance equal to 50 μM. TRPM8 expressing HEK293 cells were used in the experiment. At the day of the experiment, the cells were incubated with a 4 μM of a solution of fluorescent indicator Fluo-4 AM. The cells after the preincubation with Icilin (100 nM), the known agonist of TRPM8 ion channel, were incubated with the test compound. The activity of receptors was determined by the intracellular calcium concentration using fluorescence spectroscopy (Behrendt, H. J. et al. (2004), Br. J. Pharmacol., 141: 737-745. FINAL).

[7] = 0.75 mg/kg intragastrically 2 hours prior
[8] = 1.5 mg/kg intragastrically 2 hours prior
[9] = 2.5 mg/kg intragastrically 2 hours prior
[10] = 5 mg/kg intragastrically 2 hours prior
[11] = 10 mg/kg intragastrically 2 hours prior
[12] = 20 mg/kg intragastrically 2 hours prior
[13] = 30 mg/kg intragastrically 2 hours prior

T1 sequence (Q7Z2W7 whole entry): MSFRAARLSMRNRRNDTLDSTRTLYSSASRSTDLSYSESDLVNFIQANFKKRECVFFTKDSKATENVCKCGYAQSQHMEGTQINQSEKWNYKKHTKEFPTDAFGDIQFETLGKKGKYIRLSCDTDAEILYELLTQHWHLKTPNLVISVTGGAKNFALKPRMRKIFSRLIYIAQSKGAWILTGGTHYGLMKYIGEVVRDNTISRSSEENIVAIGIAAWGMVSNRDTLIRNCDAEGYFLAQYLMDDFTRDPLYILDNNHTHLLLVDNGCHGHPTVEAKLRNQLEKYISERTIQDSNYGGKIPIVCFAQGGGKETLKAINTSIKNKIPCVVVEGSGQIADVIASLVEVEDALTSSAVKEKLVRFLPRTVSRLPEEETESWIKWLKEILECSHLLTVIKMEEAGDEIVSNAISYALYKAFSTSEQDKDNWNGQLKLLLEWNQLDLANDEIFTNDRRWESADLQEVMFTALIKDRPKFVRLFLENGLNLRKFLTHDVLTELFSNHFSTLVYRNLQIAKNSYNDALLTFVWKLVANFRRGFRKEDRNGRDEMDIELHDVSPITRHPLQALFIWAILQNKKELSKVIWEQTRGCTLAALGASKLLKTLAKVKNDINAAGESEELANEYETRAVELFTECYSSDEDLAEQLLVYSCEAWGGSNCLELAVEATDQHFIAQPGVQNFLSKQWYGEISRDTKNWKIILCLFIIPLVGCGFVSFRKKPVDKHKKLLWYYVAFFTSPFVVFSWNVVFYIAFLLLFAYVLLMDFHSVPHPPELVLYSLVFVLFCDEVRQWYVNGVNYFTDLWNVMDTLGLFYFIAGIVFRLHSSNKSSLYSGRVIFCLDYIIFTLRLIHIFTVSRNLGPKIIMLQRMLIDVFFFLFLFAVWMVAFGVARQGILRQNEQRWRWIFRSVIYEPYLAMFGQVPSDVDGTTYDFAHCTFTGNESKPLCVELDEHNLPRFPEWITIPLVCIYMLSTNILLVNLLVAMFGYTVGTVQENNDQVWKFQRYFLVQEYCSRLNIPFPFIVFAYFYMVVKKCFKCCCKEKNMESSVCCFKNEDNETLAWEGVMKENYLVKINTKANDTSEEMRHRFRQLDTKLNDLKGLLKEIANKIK
Chain of kappa opioid receptor (P41145 whole entry): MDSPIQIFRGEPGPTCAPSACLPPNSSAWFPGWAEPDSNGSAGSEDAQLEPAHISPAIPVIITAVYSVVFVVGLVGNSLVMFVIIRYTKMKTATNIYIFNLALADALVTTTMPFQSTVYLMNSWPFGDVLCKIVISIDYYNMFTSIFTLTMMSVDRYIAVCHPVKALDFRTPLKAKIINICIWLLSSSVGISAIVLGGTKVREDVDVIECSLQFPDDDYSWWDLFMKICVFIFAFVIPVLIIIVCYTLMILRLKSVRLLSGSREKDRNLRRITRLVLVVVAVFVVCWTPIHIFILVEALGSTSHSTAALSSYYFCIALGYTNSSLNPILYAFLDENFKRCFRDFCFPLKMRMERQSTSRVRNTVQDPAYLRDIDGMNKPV
Chain of human recombinant μ-opioid receptor (P35372 whole entry): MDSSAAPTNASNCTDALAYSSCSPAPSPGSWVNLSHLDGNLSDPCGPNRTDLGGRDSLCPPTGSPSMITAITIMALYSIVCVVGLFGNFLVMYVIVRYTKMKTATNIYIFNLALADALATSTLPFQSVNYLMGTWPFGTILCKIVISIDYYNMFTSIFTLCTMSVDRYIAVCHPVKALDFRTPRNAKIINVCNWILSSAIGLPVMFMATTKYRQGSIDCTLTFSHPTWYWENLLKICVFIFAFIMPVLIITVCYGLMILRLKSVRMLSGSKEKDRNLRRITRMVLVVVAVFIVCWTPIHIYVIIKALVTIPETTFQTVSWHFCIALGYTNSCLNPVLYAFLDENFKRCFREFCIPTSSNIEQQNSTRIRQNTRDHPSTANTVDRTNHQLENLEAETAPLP

## O=C(Cc1ccc(O)cc1)N[C@@H](Cc1ccccc1)C(=O)NCCc1ccccc1 [Compound I, 2-phenylethylamide N-(p-hydroxyphenylacetyl)phenylalanine]
[1]
  IC50: 7.1 µM
[2]
  IC50: 4.1 µM
[3]
  Solubility: poor
[4]; [7]
  The number of acts of defecation within 15 minutes: 0.2 ± 0.1
  The number of washes within 15 minutes (grooming): 7.2 ± 1.4
  Number of standing up on hind legs in 15 minutes (vertical activity): 69.9 ± 4.3
  Number of squares crossed within 15 minutes (horizontal activity): 468.5 ± 13.0
  General physical activity for 15 minutes: 545.6 ± 16.5
[4]; [8]
  The number of acts of defecation within 15 minutes: 1.6 ± 0.6
  The number of washes within 15 minutes (grooming): 8.5 ± 1.6
  Number of standing up on hind legs in 15 minutes (vertical activity): 63.0 ± 4.2
  Number of squares crossed within 15 minutes (horizontal activity): 414.2 ± 24.1
  General physical activity for 15 minutes: 485.7 ± 24.8
[4]; [9]
  The number of acts of defecation within 15 minutes: 0.0 ± 0.0
  The number of washes within 15 minutes (grooming): 8.6 ± 1.6
  Number of standing up on hind legs in 15 minutes (vertical activity): 72.8 ± 3.5
  Number of squares crossed within 15 minutes (horizontal activity): 459.5 ± 19.0
  General physical activity for 15 minutes: 540.9 ± 18.0
[4]; [10]
  The number of acts of defecation within 15 minutes: 1.5 ± 0.2
  The number of washes within 15 minutes (grooming): 2.3 ± 1.0
  Number of standing up on hind legs in 15 minutes (vertical activity): 71.7 ± 4.4
  Number of squares crossed within 15 minutes (horizontal activity): 480.6 ± 22.1
  General physical activity for 15 minutes: 554.6 ± 23.9
[4]; [11]
  The number of acts of defecation within 15 minutes: 0.0 ± 0.0
  The number of washes within 15 minutes (grooming): 6.8 ± 1.3
  Number of standing up on hind legs in 15 minutes (vertical activity): 66.1 ± 3.3
  Number of squares crossed within 15 minutes (horizontal activity): 449.2 ± 15.6
  General physical activity for 15 minutes: 522.1 ± 16.5
[4]; [12]
  The number of acts of defecation within 15 minutes: 0.0 ± 0.0
  The number of washes within 15 minutes (grooming): 6.2 ± 1.3
  Number of standing up on hind legs in 15 minutes (vertical activity): 64.9 ± 4.0
  Number of squares crossed within 15 minutes (horizontal activity): 479.4 ± 29.3
  General physical activity for 15 minutes: 545.5 ± 30.4
[4]; [13]
  The number of acts of defecation within 15 minutes: 0.0 ± 0.0
  The number of washes within 15 minutes (grooming): 5.9 ± 1.4
  Number of standing up on hind legs in 15 minutes (vertical activity): 69.0 ± 3.8
  Number of squares crossed within 15 minutes (horizontal activity): 448.4 ± 16.4
  General physical activity for 15 minutes: 523.3 ± 16.6
[4]; intragastric administration, 0.75-30 mg/kg, no statistically significant differences to control
  Toxic influence on approximate-research behaviour in the open field test: did not have the toxic influence
[5]; 0.25 mg/kg by inhalation 15 minutes before capsaicin
  Suppression of cough (% from the control): 46.7%
[5]; 0.25 mg/kg by inhalation 15 minutes before capsaicin 30 μM, control 15.2 ± 0.8
  A number of cough attacks for 15 minutes from the start of inhalation (test): 8.1 ± 0.2*&
[6]
  IC50: 62 µM

Source: patent US11414377B2, “Modulator of metabotropic and ionotropic transmembrane receptors and use thereof” (IBD THERAPEUTICS LLC, priority 2018, dated 2022)
